# Where two headings read alike, the source gives them in different places.
# Experiments:
# [1] = tested on: PC-3; assay: In vitro proliferation assay (MTT), PC-3; format: cell-based, human; details: MTT assay; mean (SD, n) where given; read-out: PC-3 Prostate (IC50 μM)
# Method: (§1) The proliferation of tumor cells can be measured using a tetrazolium salt-based assay known as the MTT (3-[4,5-Dimethylthiazol-2-yl]-2,5-diphenyltetrazolium bromide) assay. […] For the assay, the cell lines are plated onto 96 well plates at 1000 to 2500 cells/well (depending on the properties of the individual cell lines), left to attach and recover overnight. […] After 3 days, the cells are incubated with MTT dye (3-[4,5-Dimethylthiazol-2-yl]-2,5-diphenyltetrazolium bromide, Sigma #M5655, 10 mg/ml in Hank's Buffered Saline) to estimate the amount of live cells remaining vs. concentration for the test compounds. […] The MTT and culture medium is then removed from the cultures and 200 μl of DMSO is added to solubilize the dye from the cell layer. The absorbance at 570 nm is determined for each culture using a Spectramax plate reader (Molecular Devices).
# (§2) IC50s were determined from the raw data from either the MTT or SRB assays.
# (§3) All of the cell lines were obtained from American Type Tissue Collection, with the ATCC accession number in parentheticals. MCF-7 and MDA-MB-231 cells were grown in improved minimum essential medium (Biofluids) without phenol red, supplemented with 5% fetal bovine serum, 0.01 mg/ml gentamicin and 3 mM L-glutamine.
# [2] = target: cdk4/cyclin D1 (Homo sapiens, UniProt P11802); assay: Cyclin-dependent kinase assay, cdk4/cyclin D1 (GST-pRb substrate); format: biochemical
# Sequence of cdk4/cyclin D1 (P11802 whole entry): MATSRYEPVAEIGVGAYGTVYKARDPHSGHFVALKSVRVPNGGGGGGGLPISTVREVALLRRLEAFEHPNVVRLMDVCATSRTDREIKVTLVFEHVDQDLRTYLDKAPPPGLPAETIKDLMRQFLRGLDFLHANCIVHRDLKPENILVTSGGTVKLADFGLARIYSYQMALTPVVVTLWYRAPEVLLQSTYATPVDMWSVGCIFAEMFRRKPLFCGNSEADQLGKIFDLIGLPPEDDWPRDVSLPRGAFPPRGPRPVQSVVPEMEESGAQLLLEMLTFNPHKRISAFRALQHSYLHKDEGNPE
# Sequence of cdk4/cyclin D1 (P24385 whole entry partner): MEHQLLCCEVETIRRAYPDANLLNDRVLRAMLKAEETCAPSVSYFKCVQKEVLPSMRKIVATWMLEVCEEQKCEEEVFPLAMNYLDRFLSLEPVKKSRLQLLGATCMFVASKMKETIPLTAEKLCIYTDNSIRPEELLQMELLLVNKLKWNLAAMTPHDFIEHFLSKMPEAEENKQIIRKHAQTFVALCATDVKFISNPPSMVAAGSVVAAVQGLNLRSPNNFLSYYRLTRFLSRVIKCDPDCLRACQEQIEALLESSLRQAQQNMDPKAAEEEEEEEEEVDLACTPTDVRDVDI
# [3] = tested on: Jurkat; assay: In vitro proliferation assay (MTT), Jurkat; format: cell-based, human; details: read-out: Jurkat Leuk. (IC50 μM)
# Method: (§4) The proliferation of tumor cells can be measured using a tetrazolium salt-based assay known as the MTT (3-[4,5-Dimethylthiazol-2-yl]-2,5-diphenyltetrazolium bromide) assay. The proliferation test is performed essentially as described by Carmichael et al., Cancer Res. 47: 936-942, 1987. For the assay, the cell lines are plated onto 96 well plates at 1000 to 2500 cells/well (depending on the properties of the individual cell lines), left to attach and recover overnight. […] After 3 days, the cells are incubated with MTT dye (3-[4,5-Dimethylthiazol-2-yl]-2,5-diphenyltetrazolium bromide, Sigma #M5655, 10 mg/ml in Hank's Buffered Saline) to estimate the amount of live cells remaining vs. concentration for the test compounds. Specifically, MTT solution is added to a final concentration of […] and the plates incubated at 37 C for 2 to 4 hr. The MTT and culture medium is then removed from the cultures and 200 μl of DMSO is added to solubilize the dye from the cell layer. The absorbance at 570 nm is determined for each culture using a Spectramax plate reader (Molecular Devices).
# as §2
# (§5) All of the cell lines were obtained from American Type Tissue Collection, with the ATCC accession number in parentheticals. […]
# [4] = tested on: HL-60 human leukemia; assay: HL-60 human leukemia xenograft in nude mice; format: in vivo; details: Table 5, control 8341 ± 5355
# Method: (§6) Antitumor efficacy is assessed using two subcutaneous human tumor xenograft models. The studies are performed using conventional assay techniques. Briefly, HL-60 (leukemia, 5×10^5 cells) and PC-3 (prostate, 5×10^6 cells) tumor cells are injected subcutaneously into nude mice (Cr1-CD1-Br-nu, Charles River Laboratory, Wilmington, Mass.). Dosing with compounds began when tumors reached 50 to 100 mm^3. The dose route/schedule for the test compounds is ip/q1d (5×/wk). The test doses are set based on the maximum tolerated dose (MTD). […] The test doses for the efficacy studies are set at ⅓rd the MTD (low dose) and the MTD (high dose). The results are shown in Tables 4 and 5 (HL-60, leukemia) (PC-3, prostate cancer). The length of the treatment phase is dependent on the tumor growth rate for the two models. This treatment phase is typically about 3 weeks for the HL-60 model and about 5 weeks for the PC-3 model. […] Dosing with flavopiridol is for the same time frame as for the experimental compounds in both xenograft models. Tumor volume (twice weekly) and body weights (once weekly) are monitored throughout the course of the treatment phase of the experiment. Tumor sizes are measured by external caliper measurements of protruding tumor. Volumes are calculated using the following formula: volume=½ (a×b2), where b is the smaller of two perpendicular diameters.
# [5] = tested on: PC-3 human prostate tumors; assay: PC-3 human prostate tumor xenograft in nude mice; format: in vivo; details: Table 5, control 1308 ± 852
# Method: as §6
# [6] = tested on: MDA-MB-435; assay: In vitro proliferation assay (MTT), MDA-MB-435; format: cell-based, human; details: mean (SD, n) where given, read-out: MB-435 Breast (IC50 μM)
# Method: as §1, §2, §3
# [7] = tested on: HL-60; assay: In vitro proliferation assay (MTT), HL-60; format: cell-based, human; details: read-out: HL-60 Leuk. (IC50 μM)
# Method: as §4, §2, §5
# [8] = target: cdk2/cyclin E (Homo sapiens, UniProt P24941); assay: Cyclin-dependent kinase assay, cdk2/cyclin E (GST-pRb substrate); details: read-out: CDK2 IC50; inhibition of cyclin E/CDK 2 enzyme activity
# Method: (§7) The IC50 values for cdk1/cyclin B, cdk2/cyclin E, and cdk4/cyclin D1 inhibition are determined using the following methods:
# The cdk2 sequence (accession number X62071) is amplified by PCR and cloned into the SpeI and XhoI sites of pFASTBAC1 (Life Technologies). […] This primer would anneal in the 3′ untranslated sequence.
# The cyclin E sequence (accession number M73812) is amplified by PCR and cloned into the XbaI and XhoI sites of pFASTBAC1 (Life Technologies).
# (§8) The cDNA for each of the cyclin-dependent kinases (CDK) and the corresponding cyclins are cloned into the baculovirus expression vector, pFASTBAC1 (Life Technologies). The sequences of each of the constructs are confirmed by automated fluorescent DNA sequencing according to the manufacture's protocol (Perkin Elmer/Applied Biosystems Inc).
# (§9) The insect cell (Sf9) expression is optimized for each of the CDK/cyclin pairs according to the manufacturer's protocols (Life Technologies).
# (§10) The viruses are added to the cells and the culture is incubated at 27° C. for the desired time. The cells are harvested by centrifugation at 3000 rpm for 10 minutes. The cells are snap frozen on dry ice and stored at −80° C.
# (§11) Cell extracts are made following a standard procedure. The cell pellet is resuspended in lysis buffer (50 mM HEPES, pH 8.0, 10 mM MgCl2, 1 mM DTT, 2.5 mM EGTA, 1 mM EDTA, 10 mM β-glycerophosphate, 1 mM sodium vanadate, 1 mM sodium fluoride, 1×Protease inhibitor cocktail). The cells are lysed using the microfluidizer (Microfluidics) for 20 minutes. Cell debris is removed by centrifugation at 100,000×g. The cell extracts are aliquoted in 1 ml aliquots, frozen on dry ice, and stored at −80° C.
# The kinase reactions are performed following a standard procedure. […]
# The transformed bacteria are grown overnight to saturation, then diluted in YT broth and incubated at 37° C. for 2 h. […] The beads are washed with kinase buffer and then quantitated of Coomassie blue-stained proteins separated by SDS-PAGE using a protein standard of known concentration.
# [9] = target: cdk1/cyclin B (Homo sapiens, UniProt P06493); assay: Cyclin-dependent kinase assay, cdk1/cyclin B (Histone H1 substrate); details: read-out: CDK1 IC50; inhibition of cyclin B/CDK 1 enzyme activity
# Sequence of cdk1/cyclin B (P06493 whole entry): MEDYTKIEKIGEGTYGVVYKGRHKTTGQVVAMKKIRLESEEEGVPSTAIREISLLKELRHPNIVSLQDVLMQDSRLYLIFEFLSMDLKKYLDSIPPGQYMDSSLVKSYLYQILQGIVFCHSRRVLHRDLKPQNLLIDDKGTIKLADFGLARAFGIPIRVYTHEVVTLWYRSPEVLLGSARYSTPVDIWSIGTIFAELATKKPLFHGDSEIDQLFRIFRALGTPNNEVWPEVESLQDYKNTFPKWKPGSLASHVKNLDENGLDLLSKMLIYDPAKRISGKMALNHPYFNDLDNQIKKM
# Sequence of cdk1/cyclin B (P14635 whole entry partner): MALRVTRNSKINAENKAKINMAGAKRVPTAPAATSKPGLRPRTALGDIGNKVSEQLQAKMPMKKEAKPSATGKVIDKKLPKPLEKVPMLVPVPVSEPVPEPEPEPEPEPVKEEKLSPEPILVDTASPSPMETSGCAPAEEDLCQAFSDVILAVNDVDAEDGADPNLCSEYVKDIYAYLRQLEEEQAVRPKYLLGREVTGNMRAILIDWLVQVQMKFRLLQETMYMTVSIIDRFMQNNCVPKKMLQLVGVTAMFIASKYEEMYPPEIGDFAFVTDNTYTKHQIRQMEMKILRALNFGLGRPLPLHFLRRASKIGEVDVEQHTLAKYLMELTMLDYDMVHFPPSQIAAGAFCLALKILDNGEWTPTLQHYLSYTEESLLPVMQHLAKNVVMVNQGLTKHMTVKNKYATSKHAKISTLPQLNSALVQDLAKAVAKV
# Method: as §7
# The cdk1 sequence (accession number Y00272) is amplified by PCR and cloned into the BamHI and SalI sites of pFASTBAC1 (Life Technologies).
# The cyclin B1 sequence (accession number M25753) is amplified by PCR and cloned into the BamHI and SalI sites of pFASTBAC1 (Life Technologies).
# as §8, §9, §10, §11
# The kinase reactions are performed following a standard procedure. The enzyme and inhibitor are diluted in kinase buffer (50 mM HEPES, pH 8.0, 10 mM MgCl2, 2.5 mM EGTA, 10 mM β-glycerophosphate, 1 mM sodium vanadate, 1 mM sodium fluoride, and 1 mM DTT) and pre-incubated for 30 minutes. […] The cdk1 enzyme activity is assayed using Histone H1 (Sigma) in the presence of 10 μM ATP for 30 min at room temperature. The reactions are terminated by the addition of 50 μL of 10 mM cold ATP to stop the reactions. The reactions are transferred to a pre-soaked 96-well multi-screen plate containing 30 μL of 100% TCA per well. After incubation for one hour at room temperature, the plates are washed twice with 200 μl of 20% TCA, followed by 200 μl of 10% TCA and finally with 200 μl of 5% TCA. After drying the plates at room temperature, the filter plates are placed in adapter plates (Packard) and 40 μl of Microscint-O® (Packard) is added to each well. Top Seal A film is used to cover the plates before counting in a Top Count Scintillation Counter.
# The % remained activity of the indicated Cdk/cyclin kinase complex in the presence of inhibitor is calculated by the ratio of cpm in the presence of inhibitor to cpm in the absence of inhibitor (% Activity=vi/vo×100%).
# [10] = tested on: NCI-H460; assay: In vitro proliferation assay (MTT), NCI-H460; format: cell-based, human; details: read-out: H-460 Lung (IC50 μM)
# Method: as §4, §2, §5
# [11] = tested on: Colo-205; assay: In vitro proliferation assay (MTT), Colo-205; format: cell-based; details: read-out: Colo-205 Colon (IC50 μM)
# Method: as §4, §2
Substance,IC50 [1] [µM],IC50 ([2]; inhibition of cyclin D1/CDK 4 enzyme activity) [nM],IC50 [3] [µM],HL60 Mean Vol. ± SD ([4]; 1 mg/kg ip q1d 5x/wk),HL60 Mean Vol. ± SD ([4]; 3 mg/kg ip q1d 5x/wk),PC-3 Mean Vol. ± SD ([5]; 1 mg/kg ip q1d 5x/wk),PC-3 Mean Vol. ± SD ([5]; 3 mg/kg ip q1d 5x/wk),IC50 [6] [µM],IC50 [7] [µM],IC50 [8] [nM],IC50 [9] [nM],IC50 [2] [nM],IC50 [10] [µM],IC50 [11] [µM]
trans-1-{4-[2-(4-Amino-cyclohexylamino)-9-cyclopentyl-9H-purin-6-ylamino]-piperidin-1-yl}-1-(4-trifluoromethyl-phenyl)-methanone dihydrochloride [Compound 3],0.66,1120,0.22,6370 ± 4655,6092 ± 4278,671 ± 672,785 ± 473,0.25,0.13,48,55,,,
"trans-N^2-(4-Amino-cyclohexyl)-9-cyclohexyl-N^6-[1-(4-chloro-benzenesulfonyl)-piperidin-4-yl]-9H-purine-2,6-diamine dihydrochloride [Compound 108]",0.43,,,,,,,0.14,,10,7,170,0.29,0.18
